Data set [1] deals with pathogen of bacterial leaf streak (Xanthomonas oryzaes pv. Oryzicola). It is filed as cell-based. The following applies: for Inhibition rate of bacterial growth (%): immersed 24 h, growth observed after 3 d.
Data set [2] deals with rice seeds. The settings on record: seed soaking 24 h, tested after 6 d.

Where two headings read alike, the source gives them in different places.

Turning to `CCCCCCCCCCCC[N+](C)(C)Cc1ccccc1.[Br-]` [Dodecyl dimethyl benzyl ammonium bromide, dodecyl dimethyl benzyl ammonium bromide], the “inhibitory effect on the pathogen of bacterial leaf streak of rice (in words)” value in data set [1] (dilutions 1:500 to 1:2000) was “a certain inhibitory effect”. Moreover, the “Inhibition rate of bacterial growth (%)” value in data set [1] (multiple for dilution 500) was determined as 41%; in data set [1] (multiple for dilution 1000), 32%; in data set [1] (multiple for dilution 1500), 30%; in data set [1] (multiple for dilution 2000), 23%. Besides, the results for the “Bud length (mm)” value in data set [2] (multiple for dilution 1500) and in data set [2] (multiple for dilution 2000) were 21 mm and 26 mm, respectively. For the same molecule, the “Germination rate of seed (%)” value in data set [2] (multiple for dilution 1500) was 55%; in data set [2] (multiple for dilution 2000) it was 56%. For the same molecule, the “Root length (mm)” value in data set [2] (multiple for dilution 1500) worked out at 20 mm; in data set [2] (multiple for dilution 2000), 28 mm.

For the origin of these results see US20240215587A1 (priority 2020, published 2024).
